Test results: patent publication US7008936B2, “Combination of epothilone analogs and chemotherapeutic agents for the treatment of proliferative diseases” (Bristol-Myers Squibb Company, priority 2002, dated 2006)

Legend:
[1] = test system: paclitaxel-sensitive (A2780, HCT116 and LS174T) and paclitaxel-resistant human colon tumors (HCT116/VM46), ovarian carcinoma (Pat-7 and A2780Tax) and breast …; experiment: Preclinical pharmacology studies, antitumor activity in tumor models; type: in vivo
[2] = test system: advanced solid tumors; experiment: Compound 1 followed by carboplatin IV every 3 weeks in patients with advanced cancer (Example 1)
Method: Compound 1 followed by carboplatin was given intravenously every 3 weeks to patients with advanced solid tumors treated with ≦2 prior chemotherapy regimens. Pharmacokinetics of both drugs were measured on the first course. Twenty-five (25) patients were treated at four dose levels—combining Compound 1 (30 or 40 mg/m^2) with […] or AUC 5 or 6 (Calvert formula; Calvert et al., J. Clin. Oncol., 1989, 7, 1748–1756) of carboplatin. A total of 91 courses were given.

[3] = test system: advanced cancer; experiment: Phase I study of Compound 1 in combination with carboplatin in patients with advanced cancer, day 1 and split day 1/8 schedules (Example 2)
Method: Compound 1 was assessed in Phase I studies in combination with other chemotherapeutic agents. Compound 1 was given as a 60-minute infusion, 30 minutes prior to a 30-minute carboplatin infusion on day 1 every three weeks (or 21 days). Pharmacokinetic samples were taken during the first cycle. Twenty-five (25) patients were treated on this schedule at 4 dose levels (Compound 1 doses of 30 mg/m^2 or 40 mg/m^2 with carboplatin doses of […], or AUC 5 or 6).
A further 14 patients were recruited onto an amended schedule with Compound 1 doses being split and administered on days 1 and 8 every three weeks (or 21 days) and carboplatin being administered on day 1.

[4] = Compound 1 plasma levels (pharmacokinetic samples, first cycle) in Phase I combination study; type: in vivo, human; details: patients, IV infusion, with carboplatin
Excerpt: Pharmacokinetic samples were taken during the first cycle.

Q: For `C/C(=C\c1csc(C)n1)[C@@H]1C[C@@H]2O[C@]2(C)CCC[C@H](C)[C@H](O)[C@@H](C)C(=O)C(C)(C)[C@@H](O)CC(=O)N1` (relative stereo) [Compound 1, [1S-1R*,3R*(E),7R*,10S*,11R*,12R*,16S*]]-7,11-dihydroxy-8,8,10,12,16-pentamethyl-3-[1-methyl-2-(2-methyl-4-thiazolyl)ethenyl]-4-aza-17-oxabicyclo[14.1.0]heptadecane-5,9-dione], which oral efficacy ([1]; oral administration, comparable to parenteral administration) is on record?
A: The oral efficacy was “orally efficacious”.

Q: And the antitumor activity ([1]; paclitaxel-sensitive and paclitaxel-resistant tumor models)?
A: The antitumor activity was “very impressive and broad spectrum of antitumor activity”.

Q: What about the confirmed partial responses ([2]; Compound 1 30 or 40 mg/m^2 + carboplatin AUC 5 or 6, IV every 3 weeks, 25 patients, breast, neuroendocrine and unknown primary carcinomas) of the same compound?
A: The confirmed partial responses was 3/25.

Q: What about the “patients with disease stabilization and clinical benefit from treatment” value ([2]; Compound 1 + carboplatin every 3 weeks, 25 patients treated) of the same compound?
A: The value was 12 patients.

Q: What about the “dose at which CTC grade 4 neutropenia was dose limiting” value ([2]; human, in vivo) of the same compound?
A: Its value is 40 mg/m^2.

Q: What about the “maximum tolerated dose of Compound 1” value ([2]; with carboplatin AUC 5 (Calvert formula), every 3 weeks) of the same compound?
A: The value was 40 mg/m^2.

Q: What about the “patients showing disease stabilization for more than two months” value ([3]; Compound 1 + carboplatin) of the same compound?
A: Its value is 48%.

Q: What about the major toxicities ([3]; Compound 1 + carboplatin, 39 patients over 7 dose levels) of the same compound?
A: Its major toxicities is “myelosuppression, myalgia and peripheral neuropathy”.

Q: What about the partial responses ([3]; Compound 1 + carboplatin, 39 patients, 2 breast, neuro-endocrine, unknown primary carcinomas and mesothelioma) of the same compound?
A: Its partial responses is 5 patients.

Q: What about the “dose at which DLT was observed, split schedule” value ([3]; Compound 1 on days 1 and 8 every three weeks with carboplatin AUC 6 on day 1) of the same compound?
A: Its value is 25 mg/m^2.

Q: What about the “dose at which dose limiting toxicity (DLT) occurred” value ([3]; Compound 1 day 1 every three weeks with carboplatin AUC 6, myelosuppression as major toxicity) of the same compound?
A: The value was 40 mg/m^2.

Q: And the “patients who withdrew from the study because of study drug toxicity” value ([3]; peripheral neuropathy reported in all these patients, 39 patients treated)?
A: Its value is “Eleven”.

Q: What about the half-life ([4]; human) of the same compound?
A: Its half-life is about 30 h.

Q: What about the “Cmax and AUC” value [4] of the same compound?
A: The value was “increase with dose”.

Q: What about the volume of distribution [4] of the same compound?
A: Its volume of distribution is “high”.
